The supplement of paper PMC10627819

Experiments:
S. aureus DSM 20231 [1] = experiment: Bliss interaction score (quartile over a dose matrix) (fitness difference); higher = more antagonism (negative = synergy)
Procedure, shortened: (§1)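 Fitness was OD595 at entry into stationary phase divided by the plate's robust no-drug mean and capped at 1; single-drug fitness was inferred from combination data. The Bliss score is observed minus expected (product) fitness, summarised by quartiles over technical, biological and donor/recipient replicates.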

S. pneumoniae D39V [2] = experiment: as above
Procedure, shortened: as §1

B. subtilis 168 [3] = experiment: as above
Procedure, shortened: as §1

S. aureus Newman [4] = experiment: as above
Procedure, shortened: as §1

S. aureus DSM 20231 [5] = experiment: fitness (endpoint OD595 vs no drug) (fraction); higher = more growth
Procedure, shortened: (§2)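 Cultures at OD595 0.01 were dispensed into 384-well plates in TSB, LB Lennox or CY and incubated at 37 °C. Every 30 min for 14 h, OD595 was read and corrected by the first reading. Fitness is the optical density at entry into stationary phase relative to the robust mean of no-drug control wells, capped at 1.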

S. pneumoniae D39V [6] = experiment: as above
Procedure, shortened: as §2

B. subtilis 168 [7] = experiment: as above
Procedure, shortened: as §2

S. aureus Newman [8] = experiment: as above
Procedure, shortened: as §2
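For Bliss interaction score (quartile over a dose matrix) in this document: first quartile when negative (synergy) and third quartile when positive (antagonism).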

C[C@@H]1O[C@@H]1P(=O)(O)O [Fosfomycin] + CC1=C\[C@@H](O)CC(=O)Cc2nc(co2)C(=O)N2CCC=C2C(=O)O[C@H](C(C)C)[C@H](C)/C=C/C(=O)NC\C=C\1 [Virginiamycin M1]
Settings | Bliss interaction score
B. subtilis 168 [3] | 0.0317
S. aureus DSM 20231 [1] | -0.0507
S. aureus Newman [4] | -0.0636
S. pneumoniae D39V [2] | -0.0376

fitness
Settings | partner 0.0625 µg/mL | partner 0.125 µg/mL | partner 0.25 µg/mL | partner 0.5 µg/mL | partner 1 µg/mL | partner 2 µg/mL
B. subtilis 168 [7], first compound 1.562 µg/mL | 0.728 | 0.688 | 0.727 | – | – | –
B. subtilis 168 [7], first compound 3.124 µg/mL | 0.603 | 0.565 | 0.576 | – | – | –
B. subtilis 168 [7], first compound 6.248 µg/mL | 0.488 | 0.43 | 0.427 | – | – | –
S. aureus DSM 20231 [5], first compound 0.781 µg/mL | 0.755 | 0.783 | 0.783 | – | – | –
S. aureus DSM 20231 [5], first compound 1.562 µg/mL | 0.533 | 0.581 | 0.605 | – | – | –
S. aureus DSM 20231 [5], first compound 3.124 µg/mL | 0.487 | 0.49 | 0.506 | – | – | –
S. aureus Newman [8], first compound 0.781 µg/mL | 0.538 | 0.567 | 0.555 | – | – | –
S. aureus Newman [8], first compound 1.562 µg/mL | 0.503 | 0.511 | 0.528 | – | – | –
S. aureus Newman [8], first compound 3.124 µg/mL | 0.173 | 0.168 | 0.149 | – | – | –
S. pneumoniae D39V [6], first compound 1.25 µg/mL | – | – | – | 0.958 | 0.944 | 0.928
S. pneumoniae D39V [6], first compound 2.5 µg/mL | – | – | – | 0.987 | 0.956 | 0.905
S. pneumoniae D39V [6], first compound 5 µg/mL | – | – | – | 0.852 | 0.831 | 0.854

fitness, one replicate
Settings | first compound 0.781 µg/mL | first compound 1.25 µg/mL | first compound 1.562 µg/mL | first compound 2.5 µg/mL | first compound 3.124 µg/mL | first compound 5 µg/mL
S. aureus DSM 20231 [5], partner 0.5 µg/mL | 0.847 | – | 0.614 | – | 0.412 | –
S. aureus DSM 20231 [5], partner 1 µg/mL | 0.771 | – | 0.643 | – | 0.386 | –
S. aureus Newman [8], partner 0.5 µg/mL | 0.626 | – | 0.557 | – | 0.299 | –
S. aureus Newman [8], partner 1 µg/mL | 0.614 | – | 0.478 | – | 0.182 | –
S. aureus Newman [8], partner 2 µg/mL | 0.463 | – | 0.297 | – | 0.0494 | –
S. pneumoniae D39V [6], partner 0.15 µg/mL | – | 0.968 | – | 0.926 | – | 0.892
S. pneumoniae D39V [6], partner 0.3 µg/mL | – | 0.89 | – | 0.908 | – | 0.897

Cc1ncc([N+](=O)[O-])n1CCO [Metronidazole] + Cc1onc(-c2ccccc2)c1C(=O)N[C@@H]1C(=O)N2[C@@H]1SC(C)(C)[C@@H]2C(=O)O [Oxacillin]
Settings | Bliss interaction score
B. subtilis 168 [3] | 0.0534
S. aureus DSM 20231 [1] | 0.0451
S. aureus Newman [4] | 0.0703
S. pneumoniae D39V [2] | 0.144

fitness
Settings | first compound 0.625 µg/mL | first compound 1.073 µg/mL | first compound 1.25 µg/mL | first compound 2.145 µg/mL | first compound 2.5 µg/mL | first compound 4.29 µg/mL | first compound 5 µg/mL
B. subtilis 168 [7], partner 0.002 µg/mL | 0.972 | – | 0.962 | – | 0.942 | – | –
B. subtilis 168 [7], partner 0.004 µg/mL | 0.957 | – | ≥ 1 | – | 0.942 | – | –
B. subtilis 168 [7], partner 0.008 µg/mL | 0.946 | – | 0.869 | – | 0.858 | – | –
S. aureus DSM 20231 [5], partner 0.0156 µg/mL | 0.937 | – | ≥ 1 | – | 0.991 | – | –
S. aureus DSM 20231 [5], partner 0.0312 µg/mL | – | – | 0.816 | – | 0.828 | – | –
S. aureus DSM 20231 [5], partner 0.0625 µg/mL | 0.632 | – | 0.645 | – | – | – | –
S. aureus Newman [8], partner 0.0156 µg/mL | 0.772 | – | 0.785 | – | 0.768 | – | –
S. aureus Newman [8], partner 0.0312 µg/mL | 0.737 | – | 0.786 | – | 0.702 | – | –
S. aureus Newman [8], partner 0.0625 µg/mL | 0.658 | – | 0.551 | – | 0.601 | – | –
S. pneumoniae D39V [6], partner 0.01 µg/mL | – | 0.971 | 0.985 | 0.891 | 0.981 | 0.965 | 0.97
S. pneumoniae D39V [6], partner 0.02 µg/mL | – | 0.964 | 0.959 | 0.967 | 0.995 | – | 0.948
S. pneumoniae D39V [6], partner 0.04 µg/mL | – | 0.845 | 0.625 | 0.888 | 0.648 | 0.839 | 0.566

fitness, one replicate
Settings | first compound 0.625 µg/mL | first compound 0.781 µg/mL | first compound 1.25 µg/mL | first compound 1.562 µg/mL | first compound 2.5 µg/mL | first compound 3.124 µg/mL
B. subtilis 168 [7], partner 0.075 µg/mL | 0.548 | – | 0.664 | – | 0.507 | –
B. subtilis 168 [7], partner 0.15 µg/mL | 0.0434 | – | 0.0679 | – | 0.0716 | –
B. subtilis 168 [7], partner 0.3 µg/mL | 0.0488 | – | 0.0601 | – | 0.0718 | –
S. aureus Newman [8], partner 0.0156 µg/mL | – | 0.826 | – | 0.749 | – | 0.817
S. aureus Newman [8], partner 0.0312 µg/mL | – | 0.737 | – | 0.737 | – | 0.721
S. aureus Newman [8], partner 0.0625 µg/mL | – | 0.655 | – | 0.643 | – | 0.705

C[C@@H]1O[C@@H]1P(=O)(O)O [Fosfomycin] + CN1C2=CC=CC=C2N=C3C1=CC=CC3=O [Pyocyanin]
Settings | Bliss interaction score
B. subtilis 168 [3] | 0.072
S. aureus DSM 20231 [1] | 0.0453
S. aureus Newman [4] | 0.105
S. pneumoniae D39V [2] | 0.0461

fitness
Settings | partner 0.325 µg/mL | partner 0.65 µg/mL | partner 1.25 µg/mL | partner 1.3 µg/mL | partner 2.5 µg/mL | partner 5 µg/mL
B. subtilis 168 [7], first compound 1.562 µg/mL | – | – | 0.671 | – | 0.632 | 0.536
B. subtilis 168 [7], first compound 3.124 µg/mL | – | – | 0.59 | – | 0.588 | 0.471
B. subtilis 168 [7], first compound 6.248 µg/mL | – | – | 0.465 | – | 0.412 | 0.376
S. aureus DSM 20231 [5], first compound 0.781 µg/mL | – | – | 0.673 | – | 0.707 | 0.541
S. aureus DSM 20231 [5], first compound 1.562 µg/mL | – | – | 0.653 | – | 0.629 | 0.472
S. aureus DSM 20231 [5], first compound 3.124 µg/mL | – | – | 0.508 | – | 0.509 | 0.39
S. aureus Newman [8], first compound 0.781 µg/mL | – | – | 0.547 | – | 0.548 | 0.424
S. aureus Newman [8], first compound 1.562 µg/mL | – | – | 0.439 | – | 0.465 | 0.38
S. aureus Newman [8], first compound 3.124 µg/mL | – | – | 0.0851 | – | 0.142 | 0.24
S. pneumoniae D39V [6], first compound 1.25 µg/mL | 0.992 | ≥ 1 | – | 0.774 | – | –
S. pneumoniae D39V [6], first compound 2.5 µg/mL | 0.971 | 0.923 | – | 0.791 | – | –
S. pneumoniae D39V [6], first compound 5 µg/mL | 0.837 | 0.899 | – | 0.745 | – | –

COc1cccc2c1C(=O)c1c(O)c3c(c(O)c1C2=O)C[C@@](O)(C(=O)CO)C[C@@H]3O[C@H]1C[C@H](N)[C@H](O)[C@H](C)O1 [Doxorubicin] + COc1ccc(C[C@H](N)C(=O)N[C@H]2[C@@H](O)[C@H](n3cnc4c(N(C)C)ncnc43)O[C@@H]2CO)cc1 [Puromycin]
Settings | Bliss interaction score
B. subtilis 168 [3] | -0.059
S. aureus DSM 20231 [1] | -0.0672
S. aureus Newman [4] | -0.0786
S. pneumoniae D39V [2] | 0.0661

fitness
Settings | first compound 0.25 µg/mL | first compound 0.5 µg/mL | first compound 0.625 µg/mL | first compound 1 µg/mL | first compound 1.25 µg/mL | first compound 2.5 µg/mL
B. subtilis 168 [7], partner 0.39 µg/mL | – | – | 0.918 | – | 0.879 | 0.558
B. subtilis 168 [7], partner 0.78 µg/mL | – | – | 0.987 | – | 0.925 | 0.45
B. subtilis 168 [7], partner 1.56 µg/mL | – | – | 0.925 | – | 0.89 | 0.336
S. aureus DSM 20231 [5], partner 0.39 µg/mL | – | – | 0.912 | – | 0.869 | 0.803
S. aureus DSM 20231 [5], partner 0.78 µg/mL | – | – | 0.889 | – | 0.954 | 0.783
S. aureus DSM 20231 [5], partner 1.56 µg/mL | – | – | 0.874 | – | 0.858 | 0.733
S. aureus Newman [8], partner 0.39 µg/mL | – | – | 0.84 | – | 0.763 | 0.699
S. aureus Newman [8], partner 0.78 µg/mL | – | – | 0.801 | – | 0.767 | 0.68
S. aureus Newman [8], partner 1.56 µg/mL | – | – | 0.84 | – | 0.725 | 0.678
S. pneumoniae D39V [6], partner 1 µg/mL | 0.998 | ≥ 1 | – | 0.882 | – | –
S. pneumoniae D39V [6], partner 2 µg/mL | 0.926 | 0.914 | – | 0.874 | – | –
S. pneumoniae D39V [6], partner 4 µg/mL | 0.54 | 0.567 | – | 0.399 | – | –

fitness, S. aureus DSM 20231 [5], one replicate
Settings | first compound 0.625 µg/mL | first compound 1.25 µg/mL | first compound 2.5 µg/mL
partner 3.12 µg/mL | 0.91 | 0.821 | 0.776
partner 6.24 µg/mL | 0.801 | 0.679 | 0.59
